# Where “and” joins values, the source holds several entries; their conditions need not be identical. Identical values can stand only once. Counter-ions that a name gives are not always drawn.
# Experiments:
# HepG2 cells [1] = assay: Measurement of cholesterol synthesis inhibitory ability; format: cell-based; conditions: HepG2 cells; for Cholesterol (100 μM) aver.: 100 μM compound; for Cholesterol (100 μM) aver. / Cholesterol (500 μM) aver.: 24 hours, content of cholesterol formed, lower value = stronger inhibition; for Cholesterol (500 μM) aver.: 500 μM compound
# Protocol: (§1) 2 mM metformin was used as a comparative compound for each of the plates (control group).
# A cholesterol synthesis inhibitory ability, which is an important function of AMPK (AMP-activated protein kinase), was measured using HepG2 cells (ATCC: American Type Culture Collection) as a hepatic cell model according to the following procedure.
# The hepatic cell model HepG2 cells were cultured in 1% serum-containing media (DMEM (Gibco), FBS (Gibco)) for 24 hours, and then treated with 100 μM or 500 μM of each of the compounds prepared in Examples for 24 hours. Then, the cells were disrupted with a lysis solution (0.1 M potassium phosphate, pH 7.4, 0.05 M NaCl, 5 mM cholic acid, 0.1% Triton X-100 (Sigma)). To the disrupted cells was added the same volume of a reaction solution (2 U/ml of a cholesterol oxidizing agent, 2 U/ml of a peroxidase, 0.2 U/ml of a cholesterol esterase, and 300 μM of Amplex red as a fluorescent factor (Molecular Probe)), which was allowed to react at 37° C. for 30 minutes. After completion of the reaction, the content of cholesterol formed in the cell lysates was measured at a wavelength of 560/590 nm (ex/em) using a fluorescence microscope.
# A lower measurement value means an increased cholesterol synthesis inhibitory ability.
# HepG2 cells [2] = assay: Measurement of gluconeogenesis inhibitory ability; format: cell-based; conditions: for Gluconeogenesis inhibition (100 μM) aver. / activity at 100 µM: 100 μM compound, 24 hours, content of glucose formed from 14C-lactate, lower value = stronger inhibition; for activity at 100 µM: Homo sapiens, HepG2, 24 h, read-out: Gluconeogenesis inhibition (100 μM) aver.
# Protocol: as §1
# HepG2 cells (ATCC: American Type Culture Collection) were cultured in 10% serum-containing high glucose media, transferred to no serum-containing low glucose media (DMEM (Gibco), FBS (Gibco)), and then treated with 100 μM of each of the compounds for 24 hours. Then, the cells were treated with 0.5 μCi ^14C-lactate (Amersham Pharmacia) and 10 mM L-lactate (Sigma), and cultured for 4 hours. After cultivation, the media were removed therefrom, and the cells were washed with PBS, treated with 0.1N NaOH and kept at room temperature for 1 hour. Then, the cells were neutralized with 1N HCl, and the content of glucose formed in the cells was measured with a liquid scintillation counter.
# A lower measurement value means an increased gluconeogenesis inhibitory ability.
# HepG2 cells [3] = assay: Measurement of triglyceride synthesis inhibitory ability; format: cell-based; conditions: HepG2 cells; for Triglyceride (100 μM) aver.: 100 μM compound; for Triglyceride (100 μM) aver. / Triglyceride (500 μM) aver.: 24 hours, content of triglyceride formed, lower value = stronger inhibition; for Triglyceride (500 μM) aver.: 500 μM compound
# Protocol: as §1
# HepG2 cells (ATCC: American Type Culture Collection) were cultured in 1% serum-containing media (DMEM (Gibco), FBS (Gibco)) for 24 hours, and then treated with 100 μM or 500 μM of each of the compounds prepared in Examples for 24 hours. Then, the cells were disrupted with a lysis solution (0.1 M potassium phosphate, pH 7.4, 0.05 M NaCl, 5 mM cholic acid, 0.1% Triton X-100). To the disrupted cells was added the same volume of a reaction solution (0.76 U/ml of a glycerol kinase (Asan Pharmaceutical Co., Ltd.), […] of a peroxidase (Asan Pharmaceutical Co., Ltd.), 22.2 U/ml of a glycerol oxidizing agent (Asan Pharmaceutical Co., Ltd.), and 300 μM of Amplex red as a fluorescent factor (Molecular Probe)), which was allowed to react at 37° C. for 30 minutes. After completion of the reaction, the content of triglyceride formed in the cell lysates was measured at a wavelength of 560/590 nm (ex/em) using a fluorescence microscope.
# A lower measurement value means an increased triglyceride synthesis inhibitory ability.
# C2C12 cells = assay: Measurement of glucose absorption ability; format: cell-based; conditions: for Glucose absorption (100 μM) aver.: 100 μM compound with 1 μM insulin, 24 hours, differentiated C2C12 cells, 3H-deoxy-glucose, higher value = stronger, more than 200% counts as glucose absorption ability
# Protocol: as §1
# C2C12 cells (ATCC: American Type Culture Collection), a muscle cell model, were induced to differentiate into muscle cells in 2% bovine fetal serum-containing media (DMEM (Gibco), FBS (Gibco)) for 6 days. The C2C12 cells which differentiated into muscle cells were transferred to serum-free low glucose media (DMEM (Gibco), FBS (Gibco)), treated with 100 μM of each of the compounds, and then cultured with 1 μM of insulin for 24 hours. After cultivation, the cells were treated with 1 μCi ^3H-deoxy-glucose (Amersham Pharmacia) and 10 μM deoxy-glucose (Sigma) at 37° C. for 15 minutes. The media were removed therefrom, and the cells were washed twice with PBS (phosphate buffered saline). The washed cells were treated with 0.1N NaOH and neutralized with 1N HCl. The content of glucose absorbed into the cells was measured with a liquid scintillation counter.
# A higher measurement value means a stronger ability to reduce insulin resistance.
# [4] = Metformin 2 mM, one value per plate
melting point [°C],Molecule,Cholesterol (100 μM) aver. (HepG2 cells [1]),Cholesterol (500 μM) aver. (HepG2 cells [1]),Gluconeogenesis inhibition (100 μM) aver. (HepG2 cells [2]; HepG2 cells),Triglyceride (100 μM) aver. (HepG2 cells [3]),Triglyceride (500 μM) aver. (HepG2 cells [3]),Glucose absorption (100 μM) aver. (C2C12 cells) [%],effect in inhibiting gluconeogenesis better than that of the control group (HepG2 cells [2]; 100 μM compound versus 2 mM metformin),activity at 100 µM (HepG2 cells [2]; HepG2 cells) [%],Cholesterol aver. (control group) (HepG2 cells [1]; [4]),"Gluconeogenesis inhibition aver. (control group) (HepG2 cells [2]; Metformin 2 mM, HepG2 cells, one value per plate)",Triglyceride aver. (control group) (HepG2 cells [3]; [4]),"Glucose absorption aver. (control group) (C2C12 cells; Metformin 2 mM, C2C12 cells, one value per plate)","Gluconeogenesis inhibition (100 μM) aver. (HepG2 cells [2]; HepG2 cells, 100 µM)"
196.1 to 198.6,"N=C(N)NC(=Nc1cccc2ccccc12)NCc1ccc2c(c1)OCO2 (as salt: hydrochloride) [Example 3, N1-benzo[1,3]dioxol-5-ylmethyl-N2-(1-naphthyl)biguanide hydrochloride]",–,–,–,–,–,–,–,–,–,–,–,–,–
–,"CCc1cc(Cl)ccc1NC(=N)NC(=N)NCc1ccc2c(c1)OCO2.Cl [Example 8, N1-benzo[1,3]dioxol-5-ylmethyl-N2-(2-ethyl-4-chloro)phenyl biguanide hydrochloride]",−1.48,28.1,96.20,3.35,19.3,14.21,–,–,–,–,–,–,–
141.7 to 155.4,"CC(C)(C)CC(C)(C)N=C(NCc1ccc2c(c1)OCO2)NC(=N)N.Cl [Example 9, N1-benzo[1,3]dioxol-5-ylmethyl-N2-t-octyl biguanide hydrochloride]",37.3,−7.10,–,82.6,−1.23,–,at least 20 times,47.5,–,–,–,–,–
143.9 to 158.1,"CN=C(NCc1ccc2c(c1)OCO2)NC(=N)N.Cl [Example 17, N1-benzo[1,3]dioxol-5-ylmethyl-N2-methyl biguanide hydrochloride]",55.85,12.19,–,96.55,53.45,–,–,90.2,–,–,–,–,–
–,"Cl.N=C(NCc1ccc2c(c1)OCO2)NC(=N)NCC1CC1 [Example 21, N1-benzo[1,3]dioxol-5-ylmethyl-N2-cyclopropanemethyl biguanide hydrochloride]",54.92,15.61,88.12,108.88,83.07,162.2,–,–,–,–,–,–,–
–,"Cl.N=C(NCc1ccc2c(c1)OCO2)NC(=N)Nc1ccc(-c2ccccc2)cc1 [Example 35, N1-benzo[1,3]dioxol-5-ylmethyl-N2-(4-biphenyl)biguanide hydrochloride]",9.93,23.56,2.28,18.86,14.13,39.19,–,–,–,–,–,–,–
–,"CN(C)C(=N)N=C(N)N [Metformin, metformin, reference compound]",–,–,–,–,–,–,–,–,73.31 and 74.50 and 85.91 and 70.69,64.50 and 59.11 and 53.09 and 78.33,74.57 and 69.88 and 73.61 and 70.05,253.20% and 336.45% and 291.63% and 170.94%,–
–,"N1-benzo[1,3]dioxol-5-ylmethyl-N2-(1-adamantyl)biguanide hydrochloride (isomer) [Example 28]",73.67,30.11,–,89.72,28.87,2.20,–,–,–,–,–,–,79.17
–,"N1-benzo[1,3]dioxol-5-ylmethyl-N2-(1-adamantyl)biguanide hydrochloride (isomer) [Example 29]",43.03,67.50,–,101.52,81.39,140.2,–,–,–,–,–,–,92.07
–,"N1-benzo[1,3]dioxol-5-ylmethyl-N2-t-butyl biguanide hydrochloride [Example 4]",27.6,11.0,100.2,89.8,70.1,162.5,–,–,–,–,–,–,–

# — patent US8642647B2, “N1-benzo[1,3]dioxol-5-ylmethyl-N2-substituted biguanide derivative, preparation method thereof, and pharmaceutical composition containing same” (Hanall Biopharma Co., Ltd., priority 2008, dated 2014)
